Like-named read-outs stand apart in the source and are kept apart here.

For data set [1] the following is noted: literature; cited from earlier work.
Data set [2] concerns DβH. As to conditions: Stanley et al., Br. J. Pharmacol. 1997; cited from earlier work.
The target in data set [3] is T1, DβH (Homo sapiens, UniProt P09172).
T1 construct: cellular homogenate (75 μg total protein); host or cells: SK-N-SH cells (homogenate)
T1 sequence (P09172 1-617): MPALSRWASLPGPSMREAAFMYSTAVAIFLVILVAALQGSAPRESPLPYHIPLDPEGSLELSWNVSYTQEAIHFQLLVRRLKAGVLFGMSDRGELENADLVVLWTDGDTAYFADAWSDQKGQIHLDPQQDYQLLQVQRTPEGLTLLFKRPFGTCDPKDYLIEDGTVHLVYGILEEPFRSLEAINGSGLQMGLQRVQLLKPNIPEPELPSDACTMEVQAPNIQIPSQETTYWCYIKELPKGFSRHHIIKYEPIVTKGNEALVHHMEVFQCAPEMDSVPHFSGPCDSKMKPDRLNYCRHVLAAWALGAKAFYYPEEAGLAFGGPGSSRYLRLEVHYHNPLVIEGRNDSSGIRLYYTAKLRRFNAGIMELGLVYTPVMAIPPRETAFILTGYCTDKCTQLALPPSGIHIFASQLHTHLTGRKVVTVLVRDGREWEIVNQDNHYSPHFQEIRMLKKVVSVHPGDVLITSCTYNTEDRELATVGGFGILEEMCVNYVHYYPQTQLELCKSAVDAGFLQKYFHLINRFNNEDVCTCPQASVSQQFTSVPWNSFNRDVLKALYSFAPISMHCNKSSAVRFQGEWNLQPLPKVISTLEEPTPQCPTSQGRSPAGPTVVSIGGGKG
The data set is described as follows: DβH inhibition assay in SK-N-SH cellular homogenates (tyramine to octopamine). The class given is biochemical. Conditions: SK-N-SH cell homogenate.

The target in data set [4] is T2, Dopamine beta hydroxylase (Homo sapiens, UniProt P09172).
T2 construct: 125 μl of plasma; tissue Instituto Português do Sangue Transplantação; host or cells: human plasma from healthy donors
T2 sequence (P09172 40-617 limits assumed): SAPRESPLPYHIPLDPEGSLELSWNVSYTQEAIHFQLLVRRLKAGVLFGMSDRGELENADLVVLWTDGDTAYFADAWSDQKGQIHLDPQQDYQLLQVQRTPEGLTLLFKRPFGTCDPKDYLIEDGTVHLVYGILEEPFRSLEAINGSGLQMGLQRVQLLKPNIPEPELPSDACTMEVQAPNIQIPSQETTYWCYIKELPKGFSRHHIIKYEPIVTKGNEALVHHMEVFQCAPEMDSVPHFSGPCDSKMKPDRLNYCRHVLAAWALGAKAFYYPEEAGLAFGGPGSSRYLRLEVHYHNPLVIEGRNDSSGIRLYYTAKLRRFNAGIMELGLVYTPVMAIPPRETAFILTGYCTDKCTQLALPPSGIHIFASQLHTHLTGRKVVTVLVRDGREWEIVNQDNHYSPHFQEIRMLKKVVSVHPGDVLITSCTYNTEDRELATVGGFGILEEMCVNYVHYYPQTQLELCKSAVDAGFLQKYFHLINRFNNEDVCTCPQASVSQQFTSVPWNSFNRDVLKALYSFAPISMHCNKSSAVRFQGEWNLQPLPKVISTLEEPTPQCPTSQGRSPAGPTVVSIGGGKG
The data set is described as follows: Dopamine beta hydroxylase activity in human plasma. The data set is classed as biochemical. An outline of the steps: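 Octopamine production from tyramine over 45 min at 37° C, measured photometrically at 330 nm after SCX extraction and periodate oxidation against an octopamine standard curve, indicates plasma DβH activity. Compounds tested at final 10, 100 and 1000 nM in human plasma, pH 5.0 cofactor buffer, 10 min preincubation; results as % of control.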

Data set [5] in a line: Evaluation of pharmacokinetic profile: plasma and brain concentrations after oral dosing. The class given is in vivo, Wistar rats. Conditions: rat, 10 mg/kg po; for concentration at 1 h / concentration at 2 h: male, Wistar; for concentration at 1 h: 1 h post-dosing; for concentration at 2 h: 2 h post-dosing. The procedure:
Adult male Wistar rats were kept under controlled environmental conditions (12 h light/dark cycle, room temperature 22±1° C. and humidity 50±5%, food and tap water ad libitum). On the day before the experiment, the animals were fasted. In experiments designed to evaluate the pharmacokinetic profile of Examples 56, 66, 199 and 232, rats (n=4) were administered orally (p.o.) with examples 56, 66, 199 and 232 (10 mg/kg/4 mL; vehicle: 40% kleptose) and plasma and brain samples were collected from anaesthetized animals at 1 and 2 h post-dosing. Animals were anaesthetized by intraperitoneal administration of sodium pentobarbital (60 mg/kg). Blood was collected from cardiac punction into heparinised tubes and kept on ice until centrifugation at 1,500 g for 15 min at 4° C. Plasma and brain samples were stored at less than −20° C. until analysis.
After thawing, 200 μL of acetonitrile 0.1% formic acid was added to 100 μL of plasma. The samples were vortexed and centrifuged for 10 min at 10 000 g. Supernatant was filtered and injected into a mass spectrometer.
After thawing and weighing, water was added to the brain to give a tissue concentration of […]. The samples were then homogenized using a Heidolph DIAX 900 mixer and transferred to plastic tubes. Following centrifugation at 10 000 g for 20 min, supernatant was taken and treated as described for plasma.

Consider `CCCCc1ccc(C(=O)O)nc1` [fusaric acid], for which the toxic side effects entry in data set [1] was “toxic side effects”.
The IC50 is the concentration needed to halve the response being measured. `NCc1c[nH]c(=S)n1[C@H]1CCc2c(F)cc(F)cc2C1` [nepicastat]: the half-maximal inhibitory concentration (IC50) in the data set on DβH [2] was 9 nM. Also, in data set [1], the “crossing of the BBB” value was “cross the BBB”.
With `CCN(CC)C(=S)S` [diethyldithiocarbamate], the toxic side effects result in data set [1] is recorded as “toxic side effects”.
As for `NC(=O)Cc1[nH]c(=S)n2c1[C@@H]1C[C@]1(c1cc(Cl)ccc1F)C2` [Example 56], the “SKNSH (0.1 μM), activity in % of control” value at DβH [3] (inhibitor 0.1 μM) is on record as 45.6 % of control. Also, at DβH [3] (inhibitor 1 μM), the “SKNSH (1 μM), activity in % of control” value is 5.2 % of control. Moreover, in data set [4] (inhibitor 0.1 μM), the “Plasma (0.1 μM), activity in % of control” value is reported as 38.5 % of control. In addition, the “Plasma (1 μM), activity in % of control” value in data set [4] (inhibitor 1 μM) is reported as 5.5 % of control. The concentration at 1 h in data set [5] (brain, read-out: Cbr (ng/g) at 1 h) was 20 ng/g; in data set [5] (plasma, read-out: Cpl (ng/mL) at 1 h), 1500 ng/mL. Besides, the concentration at 2 h in data set [5] (brain, read-out: Cbr (ng/g) at 2 h) came out at 21 ng/g; in data set [5] (plasma, read-out: Cpl (ng/mL) at 2 h) it was 1130 ng/mL. In data set [5], the “peripheral selectivity (exposure in plasma compared to brain)” value is “peripherally selective”.
`CCN(CC)C(=S)SSC(=S)N(CC)CC` [disulfiram]: in data set [1], the toxic side effects result was “toxic side effects”.

Source of the values: US11434242B2, “Dopamine-b-hydroxylase inhibitors” (BIAL-PORTELA & Cª, S.A., priority 2017, dated 2022).
